Measurements taken from patent US9993001B2, “Herbicidal composition” (ISHIHARA SANGYO KAISHA, LTD., priority 2014, dated 2018).

Key:
Assay type in all cases: in vivo
[1] = test system: large crabgrass (Digitaria sanquinalis L.); assay: Test Example 29: pot, soil treatment, metobromuron + indanofan; details: soil treatment, pot, 20th day after treatment, read-out: Growth inhibition rate of large crabgrass (%) Measured value
Text: (§1) When the herbicidal activity in a case where two active ingredients are combined, is larger than the simple sum of the respective herbicidal activities of the two active ingredients (the expected activity), it is called a synergistic effect. The activity expected by the combination of two active ingredients can be calculated as follows (Colby S. R., “Weed”, vol. 15, p. 20-22, 1967). E=α+β−(α×β[…]) where α: growth inhibition rate when treated with x (g/ha) of herbicide X, • β: growth inhibition rate when treated with y (g/ha) of herbicide Y, • E: growth inhibition rate expected when treated with x (g/ha) of herbicide X and y (g/ha) of herbicide Y.
(§2) On the 19th day after treatment, the state of growth of barnyardgrass was visually observed and evaluated in accordance with the following standards. The growth inhibition rate (%) [measured value] and the growth inhibition rate (%) [calculated value] calculated by the Colby's method, are shown in Table 2.
(§3) Growth inhibition rate (%)=inhibition rate) (%) of 0 (equivalent to the non-treated area) to 100 (complete kill)
Soil was put into a 1/300,000 ha pot, and seeds of large crabgrass (Digitaria sanquinalis L.) were sown. On the day after seeding, predetermined amounts of SC containing metobromuron as active ingredient (same as in Test Example 1) and WP containing indanofan as active ingredient were diluted with water corresponding to 1,000 L per hectare and applied for soil treatment.
On the 20th day after treatment, the state of growth of large crabgrass was visually observed and evaluated in the same manner as in Test Example 1.

[2] = test system: black nightshade (Solanum nigrum L.); assay: Test Example 27: pot, soil treatment, metobromuron + flufenacet; details: soil treatment, pot, 21st day after treatment, read-out: Growth inhibition rate of black nightshade (%) Measured value
Text: as §1, §2, §3
(§4) Soil was put into a 1/300,000 ha pot, and seeds of black nightshade (Solanum nigrum L.) were sown. On the day after seeding, predetermined amounts of SC containing metobromuron as active ingredient (same as in Test Example 1) and EC containing prosulfocarb as active ingredient (trade name: BOXER NYUZAI, manufactured by Syngenta) were diluted with water corresponding to 1,000 L per hectare and applied for soil treatment.
(§5) On the 21st day after treatment, the state of growth of black nightshade was visually observed and evaluated in the same manner as in Test Example 1.
The test was carried out in the same manner as in Test Example 26 except that EC containing prosulfocarb as active ingredient was changed to SC containing flufenacet as active ingredient (trade name: Cadou, manufactured by Bayer CropScience), to obtain the results as shown in Table 28.

[3] = test system: velvetleaf (Abutilon theophrasti MEDIC.); assay: Test Example 13: pot, soil treatment, metobromuron + pyroxasulfone; details: soil treatment, pot, 12th day after treatment, read-out: Growth inhibition rate of velvetleaf (%) Measured value
Text: as §1, §2, §3
Soil was put into a 1/300,000 ha pot, and seeds of velvetleaf (Abutilon theophrasti MEDIC.) were sown. Prior to germination of velvetleaf, predetermined amounts of SC containing metobromuron as active ingredient (same as in Test Example 1) and WG containing pyroxasulfone as active ingredient (trade name: Sakura 850 WG, manufactured by Bayer CropScience) were diluted with water corresponding to 1,000 L per hectare and applied for soil treatment.
On the 12th day after treatment, the state of growth of velvetleaf was visually observed and evaluated in the same manner as in Test Example 1.

[4] = test system: black nightshade (Solanum nigrum L.); assay: Test Example 14: pot, soil treatment, metobromuron + pyroxasulfone; details: soil treatment, pot, 12th day after treatment, read-out: Growth inhibition rate of black nightshade (%) Measured value
Text: as §1, §2, §3
as §4, with “Prior to germination of black nightshade,” for “On the day after seeding,”, “WG” for “EC”, “pyroxasulfone” for “prosulfocarb”, “(same as in Test Example 13)” for “(trade name: BOXER NYUZAI, manufactured by Syngenta)”
On the 12th day after treatment, the state of growth of black nightshade was visually observed and evaluated in the same manner as in Test Example 1.

[5] = test system: barnyardgrass (Echinochloa crus-qalli L.); assay: Test Example 21: pot, soil treatment, metobromuron + prometryn; details: soil treatment, pot, 21st day after treatment, read-out: Growth inhibition rate of barnyardgrass (%) Measured value
Text: as §1, §2, §3
as §4, with “barnyardgrass (Echinochloa crus-qalli” for “black nightshade (Solanum nigrum”, “WP” for “EC”, “prometryn” for “prosulfocarb”, “Gesagard 50,” for “BOXER NYUZAI,”, “Nippon Kayaku Co., Ltd.)” for “Syngenta)”
(§6) On the 21st day after treatment, the state of growth of barnyardgrass was visually observed and evaluated in the same manner as in Test Example 1.

[6] = test system: large crabgrass (Diqitaria sanquinalis L.); assay: Test Example 22: pot, soil treatment, metobromuron + prometryn; details: Digitaria sanguinalis, soil treatment, pot, 21st day after treatment, read-out: Growth inhibition rate of large crabgrass (%) Measured value
Text: as §1, §2, §3
as §4, with “barnyardgrass (Echinochloa crus-qalli” for “black nightshade (Solanum nigrum”, “WP” for “EC”, “prometryn” for “prosulfocarb”, “Gesagard 50,” for “BOXER NYUZAI,”, “Nippon Kayaku Co., Ltd.)” for “Syngenta)”
as §6
The test was carried out in the same manner as in Test Example 21 except that barnyardgrass (Echinochloa crus-qalli L.) was changed to large crabgrass (Diqitaria sanquinalis L.), to obtain the results as shown in Table 23.

[7] = test system: black nightshade (Solanum nigrum L.); assay: Test Example 31: pot, soil treatment, metobromuron + thiobencarb; details: soil treatment, pot, 20th day after treatment, read-out: Growth inhibition rate of black nightshade (%) Measured value
Text: as §1, §2, §3
as §4, with “common lambsquarters (Chenopodium album” for “black nightshade (Solanum nigrum”, “thiobencarb” for “prosulfocarb”, “Saturn” for “BOXER”, “KUMIAI CHEMICAL INDUSTRY Co., Ltd.)” for “Syngenta)”
(§7) On the 20th day after treatment, the state of growth of common lambsquarters was visually observed and evaluated in the same manner as in Test Example 1.
The test was carried out in the same manner as in Test Example 30 except that common lambsquarters (Chenopodium album L.) was changed to black nightshade (Solanum nigrum L.), to obtain the results as shown in Table 32.

[8] = test system: common lambsquarters (Chenopodium album L.); assay: Test Example 30: pot, soil treatment, metobromuron + thiobencarb; details: soil treatment, pot, 20th day after treatment, read-out: Growth inhibition rate of common lambsquarters (%) Measured value
Text: as §1, §2, §3
as §4, with “common lambsquarters (Chenopodium album” for “black nightshade (Solanum nigrum”, “thiobencarb” for “prosulfocarb”, “Saturn” for “BOXER”, “KUMIAI CHEMICAL INDUSTRY Co., Ltd.)” for “Syngenta)”
as §7

[9] = test system: black nightshade (Solanum nigrum L.); assay: Test Example 26: pot, soil treatment, metobromuron + prosulfocarb; details: soil treatment, pot, 21st day after treatment, read-out: Growth inhibition rate of black nightshade (%) Measured value
Text: as §1, §2, §3, §4, §5

## CCC1(CC2(c3cccc(Cl)c3)CO2)C(=O)c2ccccc2C1=O (racemic) [Indanofan, (RS)-2-[2-(3-chlorophenyl)-2,3-epoxypropyl]-2-ethyl indane-1,3-dione]
[1]; 25 g/ha
  inhibition at 25 g/ha: 25%
[1]; 37.5 g/ha
  inhibition at 37.5 g/ha: 25%
[1]; 56.3 g/ha
  inhibition at 56.3 g/ha: 28%

## CC(C)N(C(=O)COc1nnc(C(F)(F)F)s1)c1ccc(F)cc1 [Flufenacet, 4′-fluoro-N-isopropyl-2-[5-(trifluoromethyl)-1,3,4-thiadiazol-2-yloxy] acetanilide]
[2]; 83.35 g/ha
  inhibition at 83.35 g/ha: 30%
[2]; 125 g/ha
  inhibition at 125 g/ha: 25%
[2]; 187.5 g/ha
  inhibition at 187.5 g/ha: 40%

## Cn1nc(C(F)(F)F)c(CS(=O)(=O)C2=NOC(C)(C)C2)c1OC(F)F [Pyroxasulfone, 3-[5-(difluoromethoxy)-1-methyl-3-(trifluoromethyl)pyrazol-4-ylmethylsulfonyl]-4,5-dihydro-5,5-dimethyl-1,2-oxazole]
[3]; 25 g/ha
  inhibition at 25 g/ha: 25%
[3]; 33 g/ha
  inhibition at 33 g/ha: 28%
[3]; 50 g/ha
  inhibition at 50 g/ha: 38%
[4]; 25 g/ha
  inhibition at 25 g/ha: 50%
[4]; 33 g/ha
  inhibition at 33 g/ha: 64%
[4]; 50 g/ha
  inhibition at 50 g/ha: 73%

## CSc1nc(NC(C)C)nc(NC(C)C)n1 [Prometryn, N^2,N^4-diisopropyl-6-methylthio-1,3,5-triazine-2,4-diamine]
[5]; 300 g/ha
  inhibition at 300 g/ha: 15%
[5]; 400 g/ha
  inhibition at 400 g/ha: 38%
[6]; 300 g/ha
  inhibition at 300 g/ha: 62%
[6]; 400 g/ha
  inhibition at 400 g/ha: 76%

## CCN(CC)C(=O)SCc1ccc(Cl)cc1 [Thiobencarb, S-4-chlorobenzyl diethyl(thiocarbamate)]
[7]; 296.3 g/ha
  inhibition at 296.3 g/ha: 25%
[7]; 444.4 g/ha
  inhibition at 444.4 g/ha: 23%
[7]; 666.7 g/ha
  inhibition at 666.7 g/ha: 20%
[8]; 296.3 g/ha
  inhibition at 296.3 g/ha: 0%
[8]; 444.4 g/ha
  inhibition at 444.4 g/ha: 0%
[8]; 666.7 g/ha
  inhibition at 666.7 g/ha: 0%

## CCCN(CCC)C(=O)SCc1ccccc1 [Prosulfocarb, S-benzyl dipropyl(thiocarbamate)]
[9]; 653.4 g/ha
  inhibition at 653.4 g/ha: 50%
[9]; 980 g/ha
  inhibition at 980 g/ha: 50%
[9]; 1470 g/ha
  inhibition at 1470 g/ha: 50%
